Each block holds one molecule with its values, some of them ahead of it. Activity calls are given as the source filed them. The rule behind the calls is not given here.
How the values were obtained:
[1] = target: T1, von Hippel-Lindau disease tumor suppressor/Bromodomain-containing protein 4 (Homo sapiens, UniProt O60885+P40337); assay: (§1) PROTAC activity at BRD4/VHL in human MCF7 cells assessed as reduction in BRD4 level incubated for 24 hrs in presence of BRD4 based ligand (2S,4R)-1-((S)-2-(2,3-dihydroxybenzamido)-3,3-dimethylbutanoyl)-4-hydroxy-N-(4-(4-methylthiazol-5-yl)benzyl)pyrrolidine-2-carboxamide by Western blot based Combinatorial Ubiquitination Real-time PROteolysis analysis; assay type: cell-based
T1 sequence (P40337 whole entry, looked up, other chains not shown): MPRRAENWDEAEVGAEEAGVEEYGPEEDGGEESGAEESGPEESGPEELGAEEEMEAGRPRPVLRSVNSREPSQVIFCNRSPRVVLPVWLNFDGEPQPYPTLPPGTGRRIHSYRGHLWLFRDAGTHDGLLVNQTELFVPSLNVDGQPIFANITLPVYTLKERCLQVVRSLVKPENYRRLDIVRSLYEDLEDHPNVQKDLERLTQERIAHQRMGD

[2] = target: T1, von Hippel-Lindau disease tumor suppressor/Bromodomain-containing protein 4; assay: (§2) PROTAC activity at VHL/BRD4 in HEK293 cells assessed as induction of BRD4 degradation by measuring degradation rate at 1 uM measured every 15 mins for 24 hrs in presence of VHL based ligand (2S,4R)-1-((S)-2-(2,3-dihydroxybenzamido)-3,3-dimethylbutanoyl)-4-hydroxy-N-(4-(4-methylthiazol-5-yl)benzyl)pyrrolidine-2-carboxamide by HiBiT based Combinatorial Ubiquitination Real-time PROteolysis analysis; assay type: cell-based
[3] = target: T1, von Hippel-Lindau disease tumor suppressor/Bromodomain-containing protein 4; assay: as §2, with “at 10” for “at 1”; assay type: cell-based
[4] = target: T1, von Hippel-Lindau disease tumor suppressor/Bromodomain-containing protein 4; assay: as §2, with “measuring maximal level of” for “measuring”, “degradation” for “degradation rate”; assay type: cell-based
[5] = target: T1, von Hippel-Lindau disease tumor suppressor/Bromodomain-containing protein 4; assay: as §2, with “measuring maximal level of” for “measuring”, “degradation” for “degradation rate”, “at 10” for “at 1”; assay type: cell-based
[6] = target: T1, von Hippel-Lindau disease tumor suppressor/Bromodomain-containing protein 4; assay: as §1, with “as induction of” for “as reduction in”, “BRD4 degradation by measuring residual activity at 10 uM” for “BRD4 level”, “of VHL” for “of BRD4”; assay type: cell-based
[7] = target: T1, von Hippel-Lindau disease tumor suppressor/Bromodomain-containing protein 4; assay: as §1, with “as induction of” for “as reduction in”, “BRD4 degradation by measuring residual activity at 100 nM” for “BRD4 level”, “of 300 nM VHL” for “of BRD4”; assay type: cell-based
[8] = target: T1, von Hippel-Lindau disease tumor suppressor/Bromodomain-containing protein 4; assay: as §1, with “as induction of” for “as reduction in”, “BRD4 degradation by measuring residual activity at 3 uM” for “BRD4 level”, “of 300 nM VHL” for “of BRD4”; assay type: cell-based
[9] = target: T1, von Hippel-Lindau disease tumor suppressor/Bromodomain-containing protein 4; assay: as §1, with “as induction of” for “as reduction in”, “BRD4 degradation by measuring residual activity at 10 uM” for “BRD4 level”, “of 300 nM VHL” for “of BRD4”; assay type: cell-based
[10] = target: T1, von Hippel-Lindau disease tumor suppressor/Bromodomain-containing protein 4; assay: as §1, with “as induction of” for “as reduction in”, “BRD4 degradation by measuring residual activity at 1 uM” for “BRD4 level”, “of 10 uM VHL” for “of BRD4”; assay type: cell-based
[11] = target: T1, von Hippel-Lindau disease tumor suppressor/Bromodomain-containing protein 4; assay: as §1, with “as induction of” for “as reduction in”, “BRD4 degradation by measuring residual activity at 10 uM” for “BRD4 level”, “of 10 uM VHL” for “of BRD4”; assay type: cell-based
MV4-11 [12] = assay: Antitumor activity against human MV4-11 cells xenografted in nude mouse assessed as reduction in BRD4 level in tumor at 10 mg/kg, ip administered for 4 hrs and measured at 9 to 12 hrs in presence of VHL based ligand (2S,4R)-1-((S)-2-(2,3-dihydroxybenzamido)-3,3-dimethylbutanoyl)-4-hydroxy-N-(4-(4-methylthiazol-5-yl)benzyl)pyrrolidine-2-carboxamide; assay type: functional, organism-based; conditions: time 9-12 hrs
[13] = target: T1, von Hippel-Lindau disease tumor suppressor/Bromodomain-containing protein 4; assay: PROTAC activity at VHL/BRD4 in HEK293 cells assessed as induction of BRD4 degradation by measuring degradation rate at 0.3 uM measured every 15 mins for 24 hrs in presence of BRD4 based ligand ((4S)-6-(4-chlorophenyl)-4-(2-(ethylamino)-2-oxoethyl)-1-methyl4Hbenzo[f][1,2,4]triazolo [4,3-a][1,4]diazepin-8-yl)boronic acid by HiBiT based Combinatorial Ubiquitination Real-time PROteolysis analysis; assay type: cell-based
[14] = target: T1, von Hippel-Lindau disease tumor suppressor/Bromodomain-containing protein 4; assay: (§3) PROTAC activity at BRD4/VHL in human MCF7 cells assessed as induction of BRD4 degradation by measuring residual activity at 30 nM incubated for 24 hrs in presence of 100 nM BRD4 based ligand ((4S)-6-(4-chlorophenyl)-4-(2-(ethylamino)-2-oxoethyl)-1-methyl4Hbenzo[f][1,2,4]triazolo [4,3-a][1,4]diazepin-8-yl)boronic acid by Western blot based Combinatorial Ubiquitination Real-time PROteolysis analysis; assay type: cell-based
[15] = target: T1, von Hippel-Lindau disease tumor suppressor/Bromodomain-containing protein 4; assay: as §3, with “1 uM” for “30 nM”, “300” for “100”; assay type: cell-based
[16] = target: T1, von Hippel-Lindau disease tumor suppressor/Bromodomain-containing protein 4; assay: as §3, with “100” for “30”, “1 uM” for “100 nM”; assay type: cell-based
[17] = target: T1, von Hippel-Lindau disease tumor suppressor/Bromodomain-containing protein 4; assay: as §3, with “3 uM” for “30 nM”, “1 uM” for “100 nM”; assay type: cell-based
[18] = target: T1, von Hippel-Lindau disease tumor suppressor/Bromodomain-containing protein 4; assay: as §3, with “10 uM” for “30 nM”, “1 uM” for “100 nM”; assay type: cell-based
[19] = target: T1, von Hippel-Lindau disease tumor suppressor/Bromodomain-containing protein 4; assay: as §3, with “100” for “30”, “3 uM” for “100 nM”; assay type: cell-based
[20] = target: T1, von Hippel-Lindau disease tumor suppressor/Bromodomain-containing protein 4; assay: as §3, with “300” for “30”, “3 uM” for “100 nM”; assay type: cell-based
[21] = target: T1, von Hippel-Lindau disease tumor suppressor/Bromodomain-containing protein 4; assay: as §3, with “1 uM” for “30 nM”, “3 uM” for “100 nM”; assay type: cell-based
[22] = target: T1, von Hippel-Lindau disease tumor suppressor/Bromodomain-containing protein 4; assay: as §3, with “3 uM” for “30 nM”, “3 uM” for “100 nM”; assay type: cell-based
[23] = target: T1, von Hippel-Lindau disease tumor suppressor/Bromodomain-containing protein 4; assay: as §3, with “10 uM” for “100 nM”; assay type: cell-based
MV4-11 [24] = assay: Antitumor activity against human MV4-11 cells xenografted in nude mouse assessed as reduction in BRD4 level in tumor at 10 mg/kg, ip administered for 4 hrs and measured at 9 to 12 hrs in presence of BRD4 based ligand ((4S)-6-(4-chlorophenyl)-4-(2-(ethylamino)-2-oxoethyl)-1-methyl4Hbenzo[f][1,2,4]triazolo [4,3-a][1,4]diazepin-8-yl)boronic acid; assay type: functional, organism-based; conditions: time 9-12 hrs

Structure (SMILES): CCNC(=O)C[C@@H]1N=C(c2ccc(Cl)cc2)c2cc(B(O)O)ccc2-n2c(C)nnc21
Activity [1]: Active | DC50 [1]: 358 nM | Activity [2]: 0.548 h⁻¹ | Activity [3]: 4.18 h⁻¹ | Emax [4]: 80% | Emax [5]: 96% | Activity [6]: 95% | Activity [7]: 77% | Activity [8]: 39% | Activity [9]: 48% | Activity [10]: 20% | Activity [11]: 6% | Activity (MV4-11 [12]): Active

Activity [13]: 0.144 h⁻¹ | Activity [14]: 89% | Activity [15]: 48% | Activity [16]: 101% | Activity [17]: 32% | Activity [18]: 21% | Activity [19]: 74% | Activity [20]: 37% | Activity [21]: 22% | Activity [22]: 16% | Activity [23]: 76%
Structure (SMILES): Cc1ncsc1-c1ccc(CNC(=O)[C@@H]2C[C@@H](O)CN2C(=O)[C@@H](NC(=O)c2cccc(O)c2O)C(C)(C)C)cc1
Activity (MV4-11 [24]): Active

Reference: ChEMBL document CHEMBL5543126, “Combinatorial Ubiquitination REal-time PROteolysis (CURE-PROs): A Modular Platform for Generating Reversible, Self-Assembling Bifunctional Targeted Degraders” (J Med Chem, 2024)
